The values below come from a melting point compilation (Tetko et al.).

SMILES strings stand for the structures.

As for `COc1ccc2c(c1)C(=NO)C(=O)N2`, the melting point (usually the temperature, or range, at which the solid turns liquid) is 236 to 238 °C. With `CC(=O)Nc1scc(-c2cccs2)c1C(=O)O`, the melting point is 227 to 229 °C. To `CNC(=O)c1cccc(Cl)n1` belongs 42 to 44 °C.

As for `CC(C)c1cnc(S)n1C`, the melting point was 124 to 126 °C. To `CCc1noc(-c2cc(Cl)ccc2N)n1` belongs 107 to 109 °C; to `O=c1[nH]c(-c2ccccc2Br)cs1`, 169 to 171 °C; to `Cc1nn(Cc2ccccc2)c(Cl)c1C(=O)O`, 180 to 182 °C.

For the compound `O=C(O)Cc1csc(-c2ccccc2)n1`, the melting point was 89 to 91 °C. The compound `CCOC(=O)C(=O)CC(=O)c1cc(Cl)ccc1Cl` showed a melting point of 76 to 78 °C. To `Cc1cccc(N)c1C(N)=O` belongs 141 to 143 °C; to `Cc1ccc(CNCCO)cc1`, 62 to 64 °C; to `NNC(=O)Cc1cccc(F)c1`, 106 to 108 °C. To `CC(=O)N1CC=C(c2ccc(O)cc2)CC1` belongs 188 to 190 °C. To `COc1ccc(N)cc1S(=O)(=O)N(C)C` belongs 144 to 146 °C; to `NC(=O)c1ccc(N2CCSCC2)c(N)c1`, 196 to 198 °C. As for `NC(=O)c1ccc(CO)c(F)c1`, the melting point lay in the range of 103 to 105 °C. To `CC(Oc1ccc(-c2nc3ccccc3s2)cc1)C(=O)O` (stereo not given) belongs 217 to 219 °C; to `NC(=O)CCn1ccnc1`, 137 to 139 °C; to `OC1(Cc2cccc(F)c2)CCNC1` (stereo not given), 59 to 61 °C. To `O=C(O)c1ccc(-c2noc(=O)[nH]2)cc1` belongs 354 to 356 °C; to `N#Cc1cc[nH]c1`, 55 to 57 °C; to `O=C(O)C1CCCN1C(=O)c1ccccc1O` (stereo not given), 134 to 136 °C. Turning to `N#CCC(=O)NCc1ccccc1`, the melting point was in the range of 125 to 127 °C. To `CCOC(=O)C(C#N)=Cc1ccncc1` belongs 101 to 103 °C; to `CC1(C)NC(=O)N(CCBr)C1=O`, 97 to 99 °C; to `NCCn1ncc2ccccc2c1=O`, 87 to 89 °C. To `O=C(O)c1cc(S(=O)(=O)NC2CC2)ccc1Br` belongs 221 to 223 °C; to `Cn1nc(-c2ccncc2)cc1O`, 209 to 211 °C. For the compound `Cc1cc(C(=O)CCl)c(C)n1-c1cccc(S(=O)(=O)N2CCOCC2)c1`, the melting point was in the range of 171 to 173 °C.

As to `COC(=O)Cn1cnc(N)n1`, the melting point is 136 to 138 °C. To `O=c1[nH]c2c(c(=O)[nH]1)CCCC2` belongs 304 to 306 °C; to `Nc1ccccc1-c1nnnn1C1CC1`, 97 to 99 °C; to `COc1ccc2cc(CO)ccc2c1`, 122 to 124 °C.

`NC(=O)c1cccc2[nH]ccc12` returned a melting point of 138 to 140 °C.

`CS(=O)(=O)Nc1ccc(Cl)cc1C(=O)O` yielded a melting point of 199 to 201 °C. Turning to `O=C(O)COc1ccccc1OCc1ccccc1`, the melting point lay in the range of 87 to 89 °C. For the compound `ON=Cc1ccc(OCc2ccccc2)cc1`, the melting point lay within 109 to 111 °C. Take `O=C(O)C(Cc1ccccc1)Cc1ccc(Cl)cc1` (stereo not given): the melting point was in the range of 79 to 81 °C.

Turning to `O=C(NO)C1CC1`, the melting point lay in the range of 127 to 129 °C. `CN(C)c1ccc(N2C(=O)CSC2=S)cc1` displayed a melting point of 138 to 140 °C. In the case of `CSc1c(F)cc(N)cc1F`, the melting point lay in the range of 91 to 93 °C. To `Nc1cc(C(=O)O)cnc1Cl` belongs 199 to 201 °C. To `O=[N+]([O-])c1c(F)cccc1S(=O)(=O)Cl` belongs 52 to 54 °C; to `Sc1nnnn1C1CCCC1`, 123 to 125 °C; to `Cn1ccc(N2CCCC(Br)C2=O)n1` (stereo not given), 104 to 106 °C. Compound `Nc1cc(C(=O)O)ccc1-n1cnnc1` came in with a melting point of 334 to 336 °C. To `Cc1nnc(-c2cccc(C(=O)O)c2)o1` belongs 241 to 243 °C. Take `Cc1c(N)cc(C(N)=O)cc1F`: the melting point lay in the range of 188 to 190 °C. On to `O=C(O)C1CCCN1C(=O)c1cc(Cl)cc(Cl)c1` (stereo not given), for which the melting point fell in the range of 162 to 164 °C.

On to `CCCCCCNC(=O)CCl`, for which the melting point is 29 to 31 °C.
